As usually defined, the Emax is the greatest response seen or fitted, relative to the assay's reference.

Consider 17 compounds from patent US20200157092A1, “[1,2,4]-TRIAZOLO [1,5-A]-PYRIMIDINYL DERIVATIVES SUBSTITUTED WITH PIPERIDINE, […] […] OGA INHIBITORS” (priority 2017, published 2020).

Where two headings read alike, the source gives them in different places.

For the test, the target named is T1, recombinant human Meningioma Expressed Antigen 5 (MGEA5), also referred to as O-GlcNAcase (OGA) (Homo sapiens, UniProt O60502).
T1 construct: Full length OGA enzyme was purchased at OriGene (cat # TP322411); purchased OriGene TP322411
T1 sequence (O60502 1-916): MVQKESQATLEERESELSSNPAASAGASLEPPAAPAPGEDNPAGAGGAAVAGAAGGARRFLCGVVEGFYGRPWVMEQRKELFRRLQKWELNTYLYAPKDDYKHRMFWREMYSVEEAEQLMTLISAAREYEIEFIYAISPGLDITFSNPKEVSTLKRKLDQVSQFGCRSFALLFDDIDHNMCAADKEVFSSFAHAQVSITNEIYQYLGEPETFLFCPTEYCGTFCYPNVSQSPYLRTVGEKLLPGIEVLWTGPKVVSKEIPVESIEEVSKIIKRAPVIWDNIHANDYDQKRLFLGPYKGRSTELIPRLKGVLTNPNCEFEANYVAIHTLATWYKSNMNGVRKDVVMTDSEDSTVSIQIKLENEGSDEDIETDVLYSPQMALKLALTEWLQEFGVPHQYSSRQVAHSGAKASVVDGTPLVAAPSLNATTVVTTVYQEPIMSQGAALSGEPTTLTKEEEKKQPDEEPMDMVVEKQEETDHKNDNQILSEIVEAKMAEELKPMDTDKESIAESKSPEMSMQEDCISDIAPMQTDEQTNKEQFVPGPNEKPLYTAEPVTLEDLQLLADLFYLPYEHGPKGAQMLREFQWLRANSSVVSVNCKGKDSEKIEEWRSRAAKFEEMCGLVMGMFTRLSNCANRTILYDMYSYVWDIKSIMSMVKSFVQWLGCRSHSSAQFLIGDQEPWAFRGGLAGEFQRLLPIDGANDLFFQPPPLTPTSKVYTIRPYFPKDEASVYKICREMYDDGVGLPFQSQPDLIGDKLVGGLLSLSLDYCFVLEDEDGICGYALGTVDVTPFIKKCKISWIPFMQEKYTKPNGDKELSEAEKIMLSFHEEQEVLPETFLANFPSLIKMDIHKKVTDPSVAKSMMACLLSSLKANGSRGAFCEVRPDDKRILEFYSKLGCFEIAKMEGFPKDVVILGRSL
The test can be described thus: OGA biochemical assay: inhibition of FM-GlcNAc hydrolysis, fluorescence; protocol A (10 nM OGA, 1 h) or protocol B (2 nM OGA, 6 h). Particulars: for IC50: read-out: Enzymatic hOGA, pIC50 (converted). As to the method:
The hydrolysis FM-GlcNAc (Marker Gene technologies, cat # M1485) results in the formation of ß-D-N-glucosamineacetate and fluorescein. The fluorescence of the latter can be measured at excitation wavelength 485 nm and emission wavelength 538 nm. An increase in enzyme activity results in an increase in fluorescence signal. Full length OGA enzyme was purchased at OriGene (cat # TP322411). The enzyme was stored in 25 mM Tris.HCl, pH 7.3, 100 mM glycine, 10% glycerol at −20° C. […] The assay was performed in 200 mM Citrate/phosphate buffer supplemented with 0.005% Tween-20. 35.6 g Na2HPO4 2 H2O (Sigma, # C0759) were dissolved in 1 L water to obtain a 200 mM solution. […] The buffer to stop the reaction consists of a 500 mM Carbonate buffer, pH 11.0. […] OGA was used at a 10 nM (protocol A) or 2 nM (protocol B) concentration and FM-GlcNAc at a 100 uM final concentration. Dilutions were prepared in assay buffer.
Plates were pre-incubated for 60 min at room temperature and then 2 μl FM-GlcNAc substrate mix added. […] Plates were briefly centrifuged for 1 min at 1000 rpm and incubate at room temperature for 1 h (10 nM OGA, protocol A) or 6 h (2 nM OGA, protocol B). To stop the reaction 5 μl STOP buffer were added and plates centrifuge again 1 min at 1000 rpm. Fluorescence was quantified in the Thermo Scientific Fluoroskan Ascent or the PerkinElmer EnVision with excitation wavelength 485 nm and emission wavelength 538 nm.
For analysis a best-fit curve is fitted by a minimum sum of squares method. From this an IC50 value and Hill coefficient was obtained. High control (no inhibitor) and low control (saturating concentrations of standard inhibitor) were used to define the minimum and maximum values.

The mark [1] stands for this setting: Enzymatic protocol A (10 nM OGA, 1 h).
Where [2] appears, read: Enzymatic protocol B (2 nM OGA, 6 h).

With `CC(=O)Nc1ncc(S(=O)(=O)N2CCCCC(c3ccnc4ncnn34)C2)s1` (stereo not drawn) [Product 109], under setting [1], the Emax was determined as 95.4% and the IC50 was 437 nM.
On the same counts, the results for `CC(=O)Nc1ncc(S(=O)(=O)N2CCC[C@@H](c3ccnc4ncnn34)C2)s1` [Product 1] are 94.2% and 871 nM.
Consider `CC(=O)Nc1ncc(S(=O)(=O)N2CCCC(c3cc(C(F)F)nc4nccn34)C2)s1` (racemic) [Product 5], for which, under setting [1], the Emax came to 99.4% and the IC50 is 67.6 nM.
As to `CC(=O)Nc1ncc(CN2CC[C@H](C)[C@@H](c3cc(C(F)F)nc4ncnn34)C2)s1` [Product 16], under setting [1], the Emax amounted to 92.5% and the IC50 was 1820 nM. Also, under setting [2], the Emax amounted to 94.5% and the IC50 was 955 nM.
For the compound `CC(=O)Nc1ncc(S(=O)(=O)N2CCCC(c3ccnc4nccn34)C2)s1` (racemic) [Product 2], under setting [1], the Emax came to 98.4% and the IC50 was 186 nM.
Regarding `CC(=O)Nc1ncc(S(=O)(=O)N2CCC[C@H](c3ccnc4ncnn34)C2)s1` [Product 4], under setting [1], the Emax came out at 107% and the IC50 was 30.9 nM.
With `CC(=O)Nc1ncc(CN2CCCC(c3cc4c(ccn4C)nc3C)C2)s1` (stereo not drawn) [Product 105], under setting [2], the Emax stood at 102% and the IC50 is 7.41 nM.
Regarding `CC(=O)Nc1ncc(CN2CCC(c3cc(C)nc4ccnn34)C2)s1` (stereo not drawn) [Product 21], under setting [2], the Emax stood at 98.3% and the IC50 is 407 nM.
For the compound `CC(c1ccc2c(c1)OCO2)N1CCOC(c2cc(C(F)(F)F)nc3ncnn23)C1` (stereo not drawn) [Product 54], under setting [2], the Emax turned out to be 25.1% and the IC50 was greater than 10000 nM.
Regarding `CC(=O)Nc1ncc(S(=O)(=O)N2CCC(c3cc(C)nc4ncnn34)C2)s1` (racemic) [Product 8], under setting [1], the Emax turned out to be 89% and the IC50 was 1550 nM.
Regarding `CC(c1ccc2c(c1)OCO2)N1CCC(Cc2cccc3nccn23)C1` (stereo not drawn) [Product 67], under setting [2], the Emax is 95.7% and the IC50 was 102 nM.
Consider `CC(=O)Nc1ncc(CN2CCCC(C)(c3cc(C(F)F)nc4ncnn34)C2)s1` (stereo not drawn) [Product 61], for which, under setting [2], the Emax was 27.4% and the IC50 was greater than 10000 nM.
On to `CC(=O)Nc1ncc(CN2C[C@@H](c3cc(C)nc4ncnn34)C[C@@H](C(F)(F)F)C2)s1` (mixture of isomers) [Product 84], for which, under setting [2], the Emax was found to be 88.5% and the IC50 was 1480 nM.
With `CC(=O)Nc1ncc(CN2CCC(c3cc(C)nc4ncnn34)C2)s1` (stereo not drawn) [Product 18], under setting [2], the Emax came out at 97.3% and the IC50 is 295 nM.
Take `CC(=O)Nc1ncc(S(=O)(=O)N2CCCC(c3cc(C)nc4ncnn34)C2)s1` (racemic) [Product 3]: under setting [1], the Emax amounted to 96% and the IC50 was 32.4 nM.
Turning to `CC(=O)Nc1ncc(CN2CCC(c3c(F)c(C)nc4ncnn34)C2)s1` (stereo not drawn) [Product 19], under setting [2], the Emax was 97.2% and the IC50 is 204 nM.
The like results for `Cc1cc(C2CN(C(C)c3ccc4c(c3)OCO4)CCO2)n2ncnc2n1` (stereo not drawn) [Product 53] were, in that order, 64.6% and 6460 nM.
